Measured values from paper PMC12575728, “Galactose-modified small molecule modulator targets RORα to enhance circadian rhythm and alleviate periodontitis-associated alveolar bone loss” (Bone Research, 2025).
≈ marks a conversion by molar mass, not a printed value. Read-outs that look alike come from different tables or passages of the source.

Columns and labels:
Kinetic solubility test = assay type: physicochemical; settings: water, 25 °C, kinetic from dmso stock
Source text: Solubility(μmol/L)=Areafiltered×DFfiltered/Areastd×DFstd×[std]×DFstd

[1] = Body weight changes in mice after IP administration; assay type: in vivo; settings: 10 and 50 mg/kg, 7 days
Procedure: After U2OS cells were treated with various concentrations (0 ~ 50 μM) of SR1078,
Body weight changes (%) in […]

C57 mice = experiment: Mouse locomotor assay; assay type: in vivo; settings: 10 mg/kg IP at ZT11, D:D, compared to DMSO
Procedure: WT C57BL/6 J mice at the age of 2 months old were entrained under a 12-h /12-h […] at 24 °C for 2 weeks.[36] One week after mouse clock synchronization to the ambient light/dark cycle, SR1078, Gala-SR or dimethyl sulfoxide (DMSO) was dissolved in saline and intraperitoneally injected (10 mg/kg) into mice 1 h before light off (ZT11). […] SR1078, Gala-SR or DMSO was injected again 24 h later. After 2 weeks of continuous recording, locomotor activity was analyzed with ClockLab software (Actimetrics) following the procedures described previously34.

RORγ = biological target: T1, RORγ (Homo sapiens, UniProt P51449); experiment: Luciferase reporter assay (G6Pase or FGF21 promoter) in HEK293T cells cotransfected with RORγ; assay type: cell-based; settings: 5 μmol/L; for luminescence intensity of G6Pase and FGF21 reporter genes: compared to DMSO
T1 construct: expressed in transfected cells; host or cells: HEK293T
T1 sequence (P51449 1-518): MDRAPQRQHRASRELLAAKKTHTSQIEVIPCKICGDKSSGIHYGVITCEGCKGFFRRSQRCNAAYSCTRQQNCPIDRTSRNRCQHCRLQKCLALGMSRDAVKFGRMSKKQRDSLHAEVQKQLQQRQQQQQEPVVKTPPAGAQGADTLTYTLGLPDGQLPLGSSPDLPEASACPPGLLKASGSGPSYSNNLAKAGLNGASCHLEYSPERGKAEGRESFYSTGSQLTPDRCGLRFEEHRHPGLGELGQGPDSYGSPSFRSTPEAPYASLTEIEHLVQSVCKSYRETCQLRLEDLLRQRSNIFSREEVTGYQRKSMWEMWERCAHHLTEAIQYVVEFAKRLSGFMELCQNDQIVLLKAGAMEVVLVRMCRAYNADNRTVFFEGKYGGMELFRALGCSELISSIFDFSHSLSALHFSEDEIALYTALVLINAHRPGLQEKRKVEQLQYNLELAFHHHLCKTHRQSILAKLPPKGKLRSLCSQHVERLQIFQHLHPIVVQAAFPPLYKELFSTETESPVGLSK
Source text: HEK293T cells were transfected with Lipofectamine 8000 (ThermoFisher) strictly following the manufacturer’s instructions. Cotransfected HEK293T cells with RORα or RORγ plasmid and a reporter consisting of the G6Pase or FGF21 promoters upstream of a luciferase reporter gene. […] The Lumicycle instrument detects luminescence and records the numerical value.

[2] = test system: Per2-dLuc and Bmal1-dLuc U2OS cells; experiment: Real-time bioluminescence monitoring of Per2-dLuc and Bmal1-dLuc U2OS cells; assay type: cell-based, human; settings: for dose dependence of the enhancing effect on the amplitude of BMAL1: Bmal1-dLuc U2OS cells, 1-10 μM; for fluctuation degree (amplitude) of bioluminescence intensity / period or phase of the bioluminescence / overall bioluminescence levels: Bmal1-dLuc and Per2-dLuc U2OS cells, 2 μmol/L; for overall bioluminescence levels: vs DMSO
Procedure: Two clonal circadian reporter cell lines, Bmal1-dLuc and Per2-dLuc, were established and used in this study.[36] These two cell lines display robust cellular rhythmicity with near anti-phasic oscillation of bioluminescence expression. The lentivirus preparation, transduction of U2OS cells and selection of the knockout candidates with puromycin (at […] concentration) were performed using a previously published protoco.[37] LumiCycle (Actimetrics, Inc., Evanston, IL) detect for U2OS cells stably expressing Bmal1-dLuc and Per2-dLuc cells were seeded on an opaque 24-well plate. When the cells are full, which were treated with dexamethasone (DEX) (100 nmol/L final) for 2 h for resetting, 2 h later, the media of cells were replaced with bioluminescence recording media having DMEM culture medium (Gibco 21063029, 500 mL), 70 mL 12% FBS. Luciferin (0.1 mmol/L final) was added fresh to the bioluminescence media. Molecules at determined concentrations were supplied to the recording media (final DMSO concentration is 0.1%).

[3] = Pharmacokinetic studies in mice (IP and IV); assay type: in vivo; settings: for AUC / Cmax / Tmax / half-life / concentration at 8 h / bioavailability / MRT inf: male, C57BL/6 J, mouse, plasma; for concentration at 8 h: read-out: mean plasma concentration 8 h after injection; for bioavailability: intraperitoneal, IP versus IV
PER2::LUC mice = experiment: Real-time bioluminescence recording of PER2::LUC mice; assay type: in vivo; settings: 10 mg/kg IP at ZT0
Procedure: PER2::LUC mice at ages of 2–3 months-old were housed in 12:12 light-dark conditions for two weeks before the experiments.[33] Gala-SR and SR1078 (10 mg/kg) were dissolved in DMSO and I.P.injected into mouse at ZT0. After 1 h, D-luciferin was I.P. injected into mouse for another 0.5 h. Mice were then imaged on IVIS 673 Lumina III system and analyzed with live imaging software.

RORα = biological target: T2, RORα (Homo sapiens, UniProt P35398); experiment: G6Pase and FGF21 mRNA in HEK293T cells after RORα knockdown by siRNA; assay type: cell-based; settings: 5 μmol/L, 24 h
T2 construct: HEK293T cells co-transfected with a full-length RORα gene and a luciferase reporter gene; expressed in transfected cells; host or cells: HEK293T
T2 sequence (P35398 1-523): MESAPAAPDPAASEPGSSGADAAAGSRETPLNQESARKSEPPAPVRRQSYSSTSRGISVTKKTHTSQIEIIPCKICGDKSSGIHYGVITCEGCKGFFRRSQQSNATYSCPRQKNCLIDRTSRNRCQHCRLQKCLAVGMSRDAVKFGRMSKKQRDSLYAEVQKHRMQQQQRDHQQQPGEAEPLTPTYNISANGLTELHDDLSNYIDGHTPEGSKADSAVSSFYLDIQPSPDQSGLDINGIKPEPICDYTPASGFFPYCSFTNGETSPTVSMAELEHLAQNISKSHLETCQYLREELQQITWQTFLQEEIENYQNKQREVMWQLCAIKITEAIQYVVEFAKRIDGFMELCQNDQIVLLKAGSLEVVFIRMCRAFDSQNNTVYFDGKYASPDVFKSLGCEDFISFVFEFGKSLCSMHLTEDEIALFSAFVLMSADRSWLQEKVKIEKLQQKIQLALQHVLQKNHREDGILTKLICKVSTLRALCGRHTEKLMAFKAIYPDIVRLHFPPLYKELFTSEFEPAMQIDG
Procedure: RNA from liver, periodontal tissues and cell samples was prepared as previously described. Total RNA (1 ug) was synthesized into cDNA using […] (Vazyme). mRNA expression levels were normalized to GAPDH. Relative expression levels and enrichment contents were calculated using the comparative Ct Method. Primer information is detailed in Data file S1.

[4] = ip, 10 mg/kg, 10 mg/kg IP, read-out: MRTInf_obs (mean retention time)
[5] = iv, 10 mg/kg, 10 mg/kg IV, read-out: MRTInf_obs

| Structure (SMILES) | solubility kinetic at 2 h (Kinetic solubility test) | systemic toxicity (body weight changes) [1] | activity rhythm (amplitude) and total activity (C57 mice) | luminescence intensity of G6Pase and FGF21 reporter genes (RORγ) | dose dependence of the enhancing effect on the amplitude of BMAL1 [2] | fluctuation degree (amplitude) of bioluminescence intensity [2] | period or phase of the bioluminescence [2] | overall bioluminescence levels [2] | AUC/D ([3]; 10 mg/kg IP) | AUC/D ([3]; 10 mg/kg IV) | AUC ([3]; 10 mg/kg IP) | Cmax ([3]; 10 mg/kg IP) | Tmax ([3]; 10 mg/kg IP) | half-life ([3]; 10 mg/kg IP) | concentration at 8 h ([3]; 10 mg/kg IP) | AUC ([3]; 10 mg/kg IV) | Cmax ([3]; 10 mg/kg IV) | Tmax ([3]; 10 mg/kg IV) | half-life ([3]; 10 mg/kg IV) | bioavailability ([3]; 10 mg/kg) | other results |
| --- | --- | --- | --- | --- | --- | --- | --- | --- | --- | --- | --- | --- | --- | --- | --- | --- | --- | --- | --- | --- | --- |
| O=C(Nc1ccc(C(OCO[C@@H]2O[C@H](CO)[C@H](O)[C@H](O)[C@H]2O)(C(F)(F)F)C(F)(F)F)cc1)c1ccc(C(F)(F)F)cc1 [Gala-SR] | 282 µM (≈ 176 µg/mL) | reduced systematic toxicity | significantly increased | significantly enhanced the luminescence intensity | increases with the dose | further enhanced | neither SR1078 nor Gala-SR treatment induced any obvious alterations | superior efficacy than SR1078 | 607.73 kg·ng·h/mL/mg | 817.62 kg·ng·h/mL/mg | 6080 ng·h/mL | 1310 ng/mL | 30 min | 206 min | 202 ng/mL | 8180 ng·h/mL | 4990 ng/mL | 30 min | 149 min | ~74.3% | difference between Gala-SR and SR1078 in RORγ reporter luminescence (RORγ): no significant difference; circadian rhythm amplitude, with β-glycosidase ([2]; Gala-SR + β-galactosidase (205 U/mg)): augmentation; circadian rhythm amplitude, with β-glycosidase inhibitor ([2]; Gala-SR + β-galactosidase inhibitor (26 mmol/L)): suppression; MRT inf [3, 4]: 4.5 h; MRT inf [3, 5]: 2.97 h; liver luciferase signal (PER2::LUC mice): induced within 0.5 h of treatment; activation of G6Pase and FGF21 transcription after RORα knockdown (RORα): markedly hampered the activation |
| O=C(Nc1ccc(C(O)(C(F)(F)F)C(F)(F)F)cc1)c1ccc(C(F)(F)F)cc1 [SR1078, reference compound] | 4.15 µM (≈ 1.79 µg/mL) | dose-dependent toxicity | significantly increased | significantly enhanced the luminescence intensity | difficult to further promote its efficacy | significant augmentation | neither SR1078 nor Gala-SR treatment induced any obvious alterations | significantly elevated | 190.962 kg·ng·h/mL/mg | 254.24 kg·ng·h/mL/mg | 1910 ng·h/mL | 1810 ng/mL | 30 min | 58.2 min | 2.96 ng/mL | 2540 ng·h/mL | 7130 ng/mL | 30 min | 58.8 min | ~75.1% | MRTInf_obs (mean retention time) ([3]; 10 mg/kg IP, 10 mg/kg): 1.194 h; MRT inf [3, 4]: 1.19 h; MRT inf [3, 5]: 0.487 h; liver luciferase signal (PER2::LUC mice): induced within 0.5 h of treatment; activation of G6Pase and FGF21 transcription after RORα knockdown (RORα): markedly hampered the activation |
